{"source": "paper PMC11899342", "about": "“Novel Triazeneindole Antibiotics: Synthesis and Hit-to-Lead Optimization” (International Journal of Molecular Sciences, 2025)", "key": {"[1]": {"test_system": "HepG2 human liver carcinoma cells", "experiment": "MTT cytotoxicity (hepatotoxicity) on HepG2", "type": "cell-based", "settings": "Homo sapiens, HepG2, 24 h", "protocol": "(§1) The primary screening of 22 substances was performed on human embryonic fibroblasts (HEFs). […] The HepG2 cell line was obtained from the American Type Culture Collection (ATCC cat. # HB-8065). The primary HEF cells (normal human embryonic fibroblasts) were derived from human embryonic stem cells. The cells were cultured in DMEM/F12 (1:1) medium containing 10% fetal bovine serum (Invitrogen, Carlsbad, CA, USA) at 37 °C and 5% CO2, according to standard mammalian tissue culture protocols and sterile technique. […] The incubation time with the substance was 24 h for all substances and cell lines. Cell detachment by trypsin, centrifugation, and counting in a hemocytometer were performed 16 h before the addition of the substance. For correct counting of the HepG2 cells, the cell suspension was passed through a syringe needle to get rid of cell aggregates. The cells were placed in the wells of a 96-well plate. The number of cells was selected according to the properties of the cell line and the final optical density in the experiment. Fibroblasts and hepatocytes were used in the amount of 10 thousand cells per well in 100 μL of DMEM/F12 medium supplemented with 10% fetal bovine serum. The substances were added to 100 µL of medium in the wells so that the final concentrations were 50, 25, 12.5, 6.25, 3.125, and 1.62 mg/L. The final well volume was 200 µL. The medium containing fetal bovine serum, without added substances, was used as a negative control. After 24 h, excessive amounts of medium were discarded. A total of 30 µL of MTT solution (5 mg/mL in PBS) was added to each well. After the precipitation of formazan crystals (3 h incubation), they were dissolved using 100 μL of dimethyl sulfoxide. The optical density (OD) was measured at 570 nm using a microplate reader (Eppendorf). For every condition, the cell viabilities were assessed in at least three independent experiments for every cell culture. Cell survival was calculated using the following formula:(OD of treated cells − OD blank)/(OD of control cells − OD blank) × 100%, where OD blank represents the OD values in wells without cells but with the addition of the MTT and DMSO solutions. The results were presented in the form of cytotoxicity curves, and the graphs were also plotted in a Microsoft Excel program; the calculation of the IC50 half-maximal inhibition concentration values was performed in a GraphPad Prism 6.0 (GraphPad Software Inc., San Diego, CA, USA) program, based on the equations of the cytotoxicity curves."}, "MRSA": {"test_system": "MRSA", "experiment": "Selectivity index (average IC50 on eukaryotic cells / average MIC on MRSA)", "type": "cell-based, Staphylococcus aureus", "settings": "average IC50 on eukaryotic cells divided by average MIC on MRSA", "protocol": "The selectivity index was calculated for each compound as the average IC50 on eukaryotic cells divided by the average MIC on MRSA (Table 2)."}, "[2]": {"experiment": "Solubility in water by HPLC", "type": "physicochemical", "settings": "water", "summary_of_the_method": "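Compound (1.0 mg in 10 μL DMSO) mixed with 1.0 mL water, shaken 5 min and centrifuged; supernatant analysed by C18 HPLC. Water concentration derived from peak area relative to an acetonitrile standard at 1.0 mg/mL.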"}, "MRSA clinical isolates": {"test_system": "MRSA clinical isolates", "experiment": "MIC by broth microdilution against multidrug-resistant MRSA clinical isolates", "type": "cell-based, Staphylococcus aureus", "settings": "for MIC: Staphylococcus aureus", "summary_of_the_method": "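Multidrug-resistant clinical MRSA isolates, 1 × 10^6 CFU/mL suspension in Mueller Hinton broth, broth microdilution with compounds at final 1, 0.5, 0.25 and 0.125 mg/L. Incubated 18 h at 37 °C; MIC taken as lowest concentration with no visible growth, triplicate.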"}, "[3]": {"test_system": "human embryonic fibroblasts (HEFs)", "experiment": "MTT cytotoxicity on human embryonic fibroblasts", "type": "cell-based", "settings": "Homo sapiens, Fibroblast, 24 h, ND = non-toxic in tested concentrations (up to 50 mg/L)", "protocol": "as §1"}}, "note": "Where two headings read alike, the source gives them in different places."}
{"smiles": "CCOC(=O)c1[nH]c2cc(F)ccc2c1/N=N/N1CCCC1", "note": "[BX-SI043, Ethyl (E)-6-fluoro-3-(pyrrolidin-1-yldiazenyl)-1H-indole-2-carboxylate]", "values": [{"measurement": "IC50", "setting": "[1]", "value": 19, "unit": "µg/mL"}, {"measurement": "Selectivity Index", "setting": "MRSA", "value": 76}, {"measurement": "solubility at 5 min", "setting": "[2]; read-out: Solubility in water, mass concentration", "value": 0.88, "unit": "µg/mL"}, {"measurement": "solubility at 5 min", "setting": "[2]; read-out: Solubility in water, molar concentration", "value": 3, "unit": "µM"}, {"measurement": "MIC Range Against 8 MRSA Strains", "setting": "MRSA clinical isolates; 8 multidrug-resistant MRSA clinical isolates, tested 0.125-1 mg/L", "value": 0.25, "unit": "mg/L"}, {"measurement": "minimal inhibitory concentration range", "setting": "MRSA clinical isolates; 41 multidrug-resistant MRSA strains", "value": "0.125 to 0.5", "unit": "mg/L"}, {"measurement": "times lower MIC than either vancomycin or linezolid", "setting": "MRSA clinical isolates; MRSA", "value": "4–8 times"}, {"measurement": "MIC", "setting": "MRSA clinical isolates; MRSA, 8 MRSA strains, read-out: lowest MIC values against most tested strains", "value": 0.25, "unit": "µg/mL"}, {"measurement": "MIC", "setting": "MRSA clinical isolates; MRSA, Figure 6, MRSA strain 2, read-out: MIC against 8 MRSA strains", "value": 0.25, "unit": "µg/mL"}, {"measurement": "MIC", "setting": "MRSA clinical isolates; MRSA, Figure 6, MRSA strain 7, read-out: MIC against 8 MRSA strains", "value": 0.25, "unit": "µg/mL"}, {"measurement": "MIC", "setting": "MRSA clinical isolates; MRSA, Figure 6, MRSA strain 8, read-out: MIC against 8 MRSA strains", "value": 0.25, "unit": "µg/mL"}, {"measurement": "MIC", "setting": "MRSA clinical isolates; MRSA, Figure 6, MRSA strain 9, read-out: MIC against 8 MRSA strains", "value": 0.25, "unit": "µg/mL"}, {"measurement": "MIC", "setting": "MRSA clinical isolates; MRSA, Figure 6, MRSA strain 13, read-out: MIC against 8 MRSA strains", "value": 0.25, "unit": "µg/mL"}, {"measurement": "MIC", "setting": "MRSA clinical isolates; MRSA, Figure 6, MRSA strain 21, read-out: MIC against 8 MRSA strains", "value": 0.25, "unit": "µg/mL"}, {"measurement": "MIC", "setting": "MRSA clinical isolates; MRSA, Figure 6, MRSA strain 48, read-out: MIC against 8 MRSA strains", "value": 0.25, "unit": "µg/mL"}, {"measurement": "MIC", "setting": "MRSA clinical isolates; MRSA, Figure 6, MRSA strain 50, read-out: MIC against 8 MRSA strains", "value": 0.25, "unit": "µg/mL"}, {"measurement": "MIC", "setting": "MRSA clinical isolates; MRSA, Table S4, MRSA strain 1, read-out: MIC", "value": 0.25, "unit": "µg/mL"}, {"measurement": "MIC", "setting": "MRSA clinical isolates; MRSA, Table S4, MRSA strain 2, read-out: MIC", "value": 0.5, "unit": "µg/mL"}, {"measurement": "MIC", "setting": "MRSA clinical isolates; MRSA, Table S4, MRSA strain 3, read-out: MIC", "value": 0.5, "unit": "µg/mL"}, {"measurement": "MIC", "setting": "MRSA clinical isolates; MRSA, Table S4, MRSA strain 4, read-out: MIC", "value": 0.5, "unit": "µg/mL"}, {"measurement": "MIC", "setting": "MRSA clinical isolates; MRSA, Table S4, MRSA strain 5, read-out: MIC", "value": 0.25, "unit": "µg/mL"}, {"measurement": "MIC", "setting": "MRSA clinical isolates; MRSA, Table S4, MRSA strain 6, read-out: MIC", "value": 0.5, "unit": "µg/mL"}, {"measurement": "MIC", "setting": "MRSA clinical isolates; MRSA, Table S4, MRSA strain 7, read-out: MIC", "value": 0.5, "unit": "µg/mL"}, {"measurement": "MIC", "setting": "MRSA clinical isolates; MRSA, Table S4, MRSA strain 8, read-out: MIC", "value": 0.25, "unit": "µg/mL"}, {"measurement": "MIC", "setting": "MRSA clinical isolates; MRSA, Table S4, MRSA strain 9, read-out: MIC", "value": 0.5, "unit": "µg/mL"}, {"measurement": "MIC", "setting": "MRSA clinical isolates; MRSA, Table S4, MRSA strain 10, read-out: MIC", "value": 0.25, "unit": "µg/mL"}, {"measurement": "MIC", "setting": "MRSA clinical isolates; MRSA, Table S4, MRSA strain 12, read-out: MIC", "value": 0.25, "unit": "µg/mL"}, {"measurement": "MIC", "setting": "MRSA clinical isolates; MRSA, Table S4, MRSA strain 13, read-out: MIC", "value": 0.5, "unit": "µg/mL"}, {"measurement": "MIC", "setting": "MRSA clinical isolates; MRSA, Table S4, MRSA strain 14, read-out: MIC", "value": 0.25, "unit": "µg/mL"}, {"measurement": "MIC", "setting": "MRSA clinical isolates; MRSA, Table S4, MRSA strain 15, read-out: MIC", "value": 0.25, "unit": "µg/mL"}, {"measurement": "MIC", "setting": "MRSA clinical isolates; MRSA, Table S4, MRSA strain 16, read-out: MIC", "value": 0.25, "unit": "µg/mL"}, {"measurement": "MIC", "setting": "MRSA clinical isolates; MRSA, Table S4, MRSA strain 17, read-out: MIC", "value": 0.5, "unit": "µg/mL"}, {"measurement": "MIC", "setting": "MRSA clinical isolates; MRSA, Table S4, MRSA strain 18, read-out: MIC", "value": 0.5, "unit": "µg/mL"}, {"measurement": "MIC", "setting": "MRSA clinical isolates; MRSA, Table S4, MRSA strain 21, read-out: MIC", "value": 0.5, "unit": "µg/mL"}, {"measurement": "MIC", "setting": "MRSA clinical isolates; MRSA, Table S4, MRSA strain 23, read-out: MIC", "value": 0.5, "unit": "µg/mL"}, {"measurement": "MIC", "setting": "MRSA clinical isolates; MRSA, Table S4, MRSA strain 24, read-out: MIC", "value": 0.5, "unit": "µg/mL"}, {"measurement": "MIC", "setting": "MRSA clinical isolates; MRSA, Table S4, MRSA strain 25, read-out: MIC", "value": 0.5, "unit": "µg/mL"}, {"measurement": "MIC", "setting": "MRSA clinical isolates; MRSA, Table S4, MRSA strain 26, read-out: MIC", "value": 0.25, "unit": "µg/mL"}, {"measurement": "MIC", "setting": "MRSA clinical isolates; MRSA, Table S4, MRSA strain 27, read-out: MIC", "value": 0.5, "unit": "µg/mL"}, {"measurement": "MIC", "setting": "MRSA clinical isolates; MRSA, Table S4, MRSA strain 28, read-out: MIC", "value": 0.5, "unit": "µg/mL"}, {"measurement": "MIC", "setting": "MRSA clinical isolates; MRSA, Table S4, MRSA strain 29, read-out: MIC", "value": 0.5, "unit": "µg/mL"}, {"measurement": "MIC", "setting": "MRSA clinical isolates; MRSA, Table S4, MRSA strain 30, read-out: MIC", "value": 0.5, "unit": "µg/mL"}, {"measurement": "MIC", "setting": "MRSA clinical isolates; MRSA, Table S4, MRSA strain 31, read-out: MIC", "value": 0.5, "unit": "µg/mL"}, {"measurement": "MIC", "setting": "MRSA clinical isolates; MRSA, Table S4, MRSA strain 34, read-out: MIC", "value": 0.125, "unit": "µg/mL"}, {"measurement": "MIC", "setting": "MRSA clinical isolates; MRSA, Table S4, MRSA strain 35, read-out: MIC", "value": 0.5, "unit": "µg/mL"}, {"measurement": "MIC", "setting": "MRSA clinical isolates; MRSA, Table S4, MRSA strain 36, read-out: MIC", "value": 0.25, "unit": "µg/mL"}, {"measurement": "MIC", "setting": "MRSA clinical isolates; MRSA, Table S4, MRSA strain 40, read-out: MIC", "value": 0.5, "unit": "µg/mL"}, {"measurement": "MIC", "setting": "MRSA clinical isolates; MRSA, Table S4, MRSA strain 41, read-out: MIC", "value": 0.25, "unit": "µg/mL"}, {"measurement": "MIC", "setting": "MRSA clinical isolates; MRSA, Table S4, MRSA strain 42, read-out: MIC", "value": 0.5, "unit": "µg/mL"}, {"measurement": "MIC", "setting": "MRSA clinical isolates; MRSA, Table S4, MRSA strain 43, read-out: MIC", "value": 0.5, "unit": "µg/mL"}, {"measurement": "MIC", "setting": "MRSA clinical isolates; MRSA, Table S4, MRSA strain 44, read-out: MIC", "value": 0.5, "unit": "µg/mL"}, {"measurement": "MIC", "setting": "MRSA clinical isolates; MRSA, Table S4, MRSA strain 45, read-out: MIC", "value": 0.5, "unit": "µg/mL"}, {"measurement": "MIC", "setting": "MRSA clinical isolates; MRSA, Table S4, MRSA strain 46, read-out: MIC", "value": 0.5, "unit": "µg/mL"}, {"measurement": "MIC", "setting": "MRSA clinical isolates; MRSA, Table S4, MRSA strain 48, read-out: MIC", "value": 0.5, "unit": "µg/mL"}, {"measurement": "MIC", "setting": "MRSA clinical isolates; MRSA, Table S4, MRSA strain 49, read-out: MIC", "value": 0.25, "unit": "µg/mL"}, {"measurement": "MIC", "setting": "MRSA clinical isolates; MRSA, Table S4, MRSA strain 50, read-out: MIC", "value": 0.5, "unit": "µg/mL"}, {"measurement": "MIC", "setting": "MRSA clinical isolates; MRSA, Table S4, MRSA strain 51, read-out: MIC", "value": 0.5, "unit": "µg/mL"}, {"measurement": "IC50", "setting": "[3]", "value": 19, "unit": "µg/mL"}]}
